From US8129355B2, “Ketone ligands for modulating the expression of exogenous genes via an ecdysone receptor complex” (priority 2002, dated 2012)
Where two headings read alike, the source gives them in different places.

Molecular target: T1, Bombyx mori EcR (VP16 fusion, switch construct CVBE) with 6XEcRE LacZ reporter (Bombyx mori, UniProt P49881)
T1 construct: expressed in transfected cells; host or cells: Human 293 kidney (HEK-293) cells, retrovirally infected, clone Z3
T1 sequence (P49881 86-606 limits assumed): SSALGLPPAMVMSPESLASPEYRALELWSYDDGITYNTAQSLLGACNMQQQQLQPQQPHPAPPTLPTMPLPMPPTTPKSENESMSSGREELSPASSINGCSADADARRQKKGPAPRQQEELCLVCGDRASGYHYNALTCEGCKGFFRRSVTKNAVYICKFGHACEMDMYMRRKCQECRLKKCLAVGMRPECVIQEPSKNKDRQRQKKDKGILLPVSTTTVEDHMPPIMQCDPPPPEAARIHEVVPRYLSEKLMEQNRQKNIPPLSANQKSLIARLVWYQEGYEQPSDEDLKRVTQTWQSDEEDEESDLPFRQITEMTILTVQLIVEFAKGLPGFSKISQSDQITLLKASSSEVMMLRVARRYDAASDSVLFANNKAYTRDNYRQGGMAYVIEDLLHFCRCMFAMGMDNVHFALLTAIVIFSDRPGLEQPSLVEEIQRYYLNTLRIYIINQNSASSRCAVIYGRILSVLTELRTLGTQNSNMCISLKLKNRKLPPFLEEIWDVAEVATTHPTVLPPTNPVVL
T1 sequence (P19793 1-462 partner): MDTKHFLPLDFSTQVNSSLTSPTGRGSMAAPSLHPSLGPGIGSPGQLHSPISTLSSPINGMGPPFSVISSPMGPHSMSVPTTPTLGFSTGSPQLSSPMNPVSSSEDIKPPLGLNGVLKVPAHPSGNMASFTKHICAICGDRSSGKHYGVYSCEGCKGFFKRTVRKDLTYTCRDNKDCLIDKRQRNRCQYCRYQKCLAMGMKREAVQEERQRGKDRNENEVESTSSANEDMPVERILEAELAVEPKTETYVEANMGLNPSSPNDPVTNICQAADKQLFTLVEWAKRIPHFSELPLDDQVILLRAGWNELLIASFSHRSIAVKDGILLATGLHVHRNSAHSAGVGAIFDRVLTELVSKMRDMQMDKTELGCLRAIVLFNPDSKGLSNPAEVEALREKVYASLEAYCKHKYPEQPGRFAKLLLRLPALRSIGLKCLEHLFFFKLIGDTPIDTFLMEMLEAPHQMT
Experiment: Z3 assay: β-galactosidase (LacZ) reporter gene fold induction in stably transformed human 293 kidney cells (clone Z3)
Assay type: cell-based
Summary of the method: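 β-Galactosidase read 48 h after dosing by bioluminescent assay; ligand added at 33 μM with DMSO held at 0.03%. The cells are stable 293 clone Z3, expressing a CMV-driven VP16 fusion of Bombyx mori EcR residues 26-546 plus six EcRE copies upstream of lacZ.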

[1] = maximum fold induction at any concentration relative to that of GS-E ligand
[2] = read-out: Fold Induction Average, Z3 Assay (33 μM)
[3] = read-out: Z3 LC50; average; dose response, three-parameter logistic model
[4] = average; dose response, three-parameter logistic model; read-out: Z3 LC50
[5] = single dose 33 μM; ligand treated / DMSO treated cells
[6] = single dose 33 μM; ligand treated / DMSO treated cells; read-out: Fold Induction Average, Z3 Assay (33 μM)

SMILES	Z3 Rel Max FI [1]	fold induction at 33 µM [2]	CC50 [3] [µM]	CC50 [4] [µM]	Fold Induction Average, Z3 Assay (33 μM) [5]	fold induction at 33 µM [6]
COc1ccc(C(=O)C2(NC(=O)c3cccc(OC)c3C)CCCCC2)c(OC)n1 [Example 64]	0.77	1160	2.62	–	–	–
COc1cc(C(=O)C2(NC(=O)c3cccc(OC)c3C)CCCC2)cc(OC)c1C [Example 65]	0.06	–	–	8.84	151	–
COc1cccc(C(=O)NC(C)(C(=O)c2ccc(C)cc2)C(C)C)c1C (centres unmarked) [Example 33]	0.05	–	–	~20	–	31
COc1cccc(C(=O)NC(C)(C(=O)c2ccccc2)C(C)C)c1C (centres unmarked) [Example 34]	0.04	66	> 33	–	–	–
COc1cccc(C(=O)NC2(C(=O)c3cccc(C)c3)CCOCC2)c1C [Example 25]	0.07	19	~20	–	–	–
COc1cccc(C(=O)C2(NC(=O)c3cccc(OC)c3C)CCCCC2)c1 [Example 4]	0.54	233	1.19	–	–	–
COc1ccc(C(=O)C2(NC(=O)c3cccc(OC)c3C)CCCCC2)cc1 [Example 46]	0.03	15	> 33	–	–	–
COc1cccc(C(=O)NC2(C(=O)c3ccc(C)cc3)CCCC2)c1C [Example 79]	0.12	–	–	34.4	–	–
COc1cccc(C(=O)NC2(C(=O)c3ccc(F)c(C)c3)CCCC2)c1C [Example 17]	0.43	393	3.47	–	–	–
COc1cccc(C(=O)NC2(C(=O)c3cc(C)cc(C)c3)CCS(=O)(=O)CC2)c1C [Example 62]	0.10	347	~15	–	–	–
COc1ccccc1C(=O)C(C)(NC(=O)c1cccc(OC)c1C)c1ccc(F)cc1 (centres unmarked) [Example 72]	–	–	–	–	1	–
COc1cccc(C(=O)NC(C)(C(=O)c2cccc(C)c2)C(C)C)c1C (centres unmarked) [Example 31]	0.47	–	–	8.61	–	312
COc1cccc(C(=O)NC2(C(=O)c3cc(F)c(F)c(OC)c3)CCCCC2)c1C [Example 68]	0.70	1010	2.83	–	–	–
COc1cccc(C(=O)NC2(C(=O)c3cc(C)cc(C)c3)CCCCC2)c1C [Example 11]	0.99	–	–	1.41	–	722
COc1cccc(C(=O)NC(C)(C)C(=O)c2cc(C)cc(C)c2)c1C [Example 75]	0.17	–	–	~10	312	–
COc1cccc(C(=O)NC2(C(=O)c3cc(C)cc(C)c3)CCCCCC2)c1C [Example 71]	0.69	–	–	1.61	952	–
COc1cccc(C(=O)NC2(C(=O)c3cc(C)cc(C)c3)CCOCC2)c1C [Example 27]	0.81	562	10	–	–	–
O=C(NC1(C(=O)c2ccccc2)CCCC1)c1ccccc1 [Example 139]	0.00	–	–	> 33	–	–
COc1ccccc1C(=O)C1(NC(=O)c2cccc(OC)c2C)CCCCC1 [Example 45]	0.84	665	0.98	–	–	–
COc1cccc(C(=O)C(C)(NC(=O)c2cccc(OC)c2C)C(C)C)c1 (centres unmarked) [Example 32]	0.12	33	25.5	–	–	–
COc1cccc(C(=O)NC2(C(=O)c3ccc(F)cc3)CCCC2)c1C [Example 42]	0.14	153	~15	–	–	–
CCc1c(C(=O)NC2(C(=O)c3ccccc3)CCCC2)ccc2c1OCCO2 [Example 22]	0.48	602	~10	–	–	–
